Experimental data as given in patent US4265901A, “2-Oxybenzimidazoline compounds” (priority 1979, dated 1981).
Several values for one entry are separate records, joined by “and”; a condition that tells them apart may be missing. Identical values can stand only once. Counter-ions that a name gives are not always drawn.

Tests used:
Velvetleaf = assay: Post-emergence herbicide test, velvetleaf; type: in vivo, Abutilon theophrasti
Experimental: (§1) In this evaluation, each compound to be tested was dissolved in a 1:1 mixture of acetone and ethanol containing a small amount of Toximul R and Toximul S (each a sulfonate/nonionic blend produced by Stepan Chemical Company, Northfield, Illinois). The solution was then diluted with deionized water to a composition of the following concentrations, by weight: Plant species used as indicators of herbicidal activity were planted in galvanized pans (flats) 31.5 cm. long, 21.5 cm. wide, and 8.0 cm. deep. The bottoms of the flats had holes to facilitate drainage. The soil used was a 1:1 ratio by volume of masonry sand and shredded top soil. Seeds of seven indicator species were planted in rows perpendicular to the long axis of the flat, one species per row, and covered with 0.5 to 1.0 cm. of sterilized soil. Indicator species and approximate number of seeds planted were as follows: Flats that were to receive preemergence treatments were planted one day prior to, or on the same day treatments were applied. Flats that were to receive postemergence treatments were planted 9 days prior to treatment and placed in a growth chamber until the day of treatment. In the growth chamber, flats received 12 to 18 hours of light per day and were subject to temperatures of 75° to 85° F. The formulated test compound was applied uniformly to the indicator species with a modified DeVilbiss atomizer using air pressure of 3 to 5 psi. Each flat received 12.5 ml. of spray solution which was equal to 200 gallons/acre total spray volume. Plants were maintained in a greenhouse after treatment. Herbicidal effects of chemicals were evaluated by two injury rating systems 18 days after preemergence applications and 14 days after postemergence applications. The degree of plant injury was based on a 1 to 5 scale and a single numerical rating was assigned to each test species as follows: […]

Mexican bean beetle = Mexican bean beetle test; type: in vivo, Epilachna varivestis; conditions: 4 days; for Mexican Bean Beetle Stom. (mortality rating): ranges in brackets are in %
Experimental: In this evaluation, each compound to be tested was dissolved in a 1:1 mixture of acetone and ethanol containing a small amount of Toximul R and Toximul S (each a sulfonate/nonionic blend produced by Stephan Chemical Company, Northfield, Ill.). The solution was then diluted with distilled water to a concentration of 1000 ppm of test compound.
This test was conducted with second instar larvae of Epilachna varivestis Mulsant, order Coleoptera, family Coccinellidae. Larvae for the test, of uniform size and not molting, were picked by hand from flats of Bountiful snap beans on which they were grown and were placed in 100×20 mm plastic petri dishes for testing. Five larvae were used per replicate.
Two 4- to 6-day-old Bountiful green bean primry leaves (approximately 6 sq. in. of leaf surface) were used for each replicate. Two replicates were run per compound.
[…] […] The nozzle of the atomizer was held 12 to 18 inches from the leaves and was supplied with 5-6 psi air pressure. The atomizer was rinsed with acetone after each compound was sprayed. The plants were allowed to dry. The leaves were then cut from the plants and placed in the petri dishes containing the bean beetle larvae. A small wad of wet cellucotton was added to each dish to help prevent the leaves from wilting.
After 4 days, a mortality count was made and the amount of feeding was noted. Moribund larvae were counted as dead.

Cucumber = assay: Pre-emergence herbicide test, cucumber; type: in vivo
Experimental: as §1, with “soil.” for “soil. Seeds of seven indicator species were planted in rows perpendicular to the long axis of the flat, one species per row, and covered with 0.5 to 1.0 cm. of sterilized soil. Indicator species and approximate number of seeds planted were as follows:”

Tomato = assay: Pre-emergence herbicide test, tomato; type: in vivo
Experimental: as §1, with “soil.” for “soil. Seeds of seven indicator species were planted in rows perpendicular to the long axis of the flat, one species per row, and covered with 0.5 to 1.0 cm. of sterilized soil. Indicator species and approximate number of seeds planted were as follows:”

Sugar Beet = assay: Pre-emergence herbicide test, sugar beet; type: in vivo
Experimental: as §1, with “soil.” for “soil. Seeds of seven indicator species were planted in rows perpendicular to the long axis of the flat, one species per row, and covered with 0.5 to 1.0 cm. of sterilized soil. Indicator species and approximate number of seeds planted were as follows:”

Zinnia = assay: Post-emergence herbicide test, zinnia; type: in vivo, Zinnia elegans
Experimental: as §1

Large Crabgrass = assay: Post-emergence herbicide test, large crabgrass; type: in vivo, Digitaria sanguinalis
Experimental: as §1

Mustard = assay: Pre-emergence herbicide test, mustard; type: in vivo
Experimental: as §1, with “soil.” for “soil. Seeds of seven indicator species were planted in rows perpendicular to the long axis of the flat, one species per row, and covered with 0.5 to 1.0 cm. of sterilized soil. Indicator species and approximate number of seeds planted were as follows:”

Morning-glory = assay: Pre-emergence herbicide test, morningglory; type: in vivo, Ipomoea purpurea
Experimental: as §1

O=[N+]([O-])c1cc(C(F)(F)F)cc2c1NC(O)(C(F)(F)C(F)F)N2 (stereo not drawn) [Example 2, 2-Hydroxy-2-(1,1,2,2-Tetrafluoroethyl)-4-Nitro-6-(Trifluoromethyl)Benzimidazoline, Sodium Salt, and Hydrate]
plant injury rating (Velvetleaf; 1/2 lb/A): 2SB
plant injury rating (Velvetleaf; 1/4 lb/A): 2B
plant injury rating (Velvetleaf; 1 lb/A, Hydrate): 3BS and 4BS
plant injury rating (Velvetleaf; 2 lb/A): 5D
plant injury rating (Velvetleaf; 4 lb/A): 5D
plant injury rating (Velvetleaf; 8 lb/A): 5D
Mexican Bean Beetle Feed. (feeding rating) (Mexican bean beetle; 100 ppm): 0 (none of the leaves eaten)
Mexican Bean Beetle Stom. (mortality rating) (Mexican bean beetle; 100 ppm): 3 (100)
Mexican Bean Beetle Stom. (mortality rating) (Mexican bean beetle; 1000 ppm): 3 (100)
plant injury rating (Cucumber; 1/2 lb/A): 1 (no injury)
plant injury rating (Cucumber; 1/4 lb/A): 1 (no injury)
plant injury rating (Cucumber; 1 lb/A): 1 (no injury)
plant injury rating (Cucumber; 2 lb/A): 1 (no injury)
plant injury rating (Cucumber; 4 lb/A): 4BS
plant injury rating (Tomato; 1/2 lb/A): 2S
plant injury rating (Tomato; 1/4 lb/A): 1 (no injury)
plant injury rating (Tomato; 2 lb/A): 1 (no injury)
plant injury rating (Tomato; 4 lb/A): 4BS
plant injury rating (Sugar Beet; 1/2 lb/A): 2S
plant injury rating (Sugar Beet; 1/4 lb/A): 1 (no injury)
plant injury rating (Sugar Beet; 2 lb/A): 5D
plant injury rating (Sugar Beet; 4 lb/A): 5N
plant injury rating (Zinnia; 1/2 lb/A): 3BS
plant injury rating (Zinnia; 1/4 lb/A): 3BS
plant injury rating (Zinnia; 2 lb/A): 5D
plant injury rating (Zinnia; 4 lb/A): 5D
plant injury rating (Zinnia; 8 lb/A): 5D
plant injury rating (Large Crabgrass; 1/2 lb/A): 3BS
plant injury rating (Large Crabgrass; 1/4 lb/A): 2BS
plant injury rating (Large Crabgrass; 1 lb/A): 4BS
plant injury rating (Large Crabgrass; 2 lb/A): 5D
plant injury rating (Large Crabgrass; 4 lb/A): 5D
plant injury rating (Large Crabgrass; 8 lb/A): 5D
plant injury rating (Mustard; 1/2 lb/A): 2S
plant injury rating (Mustard; 1/4 lb/A): 1 (no injury)
plant injury rating (Mustard; 1 lb/A): 4B
plant injury rating (Mustard; 2 lb/A): 5D
plant injury rating (Mustard; 4 lb/A): 5D
plant injury rating (Morning-glory; 1/2 lb/A): 1 (no injury)
plant injury rating (Morning-glory; 1/4 lb/A): 1 (no injury)
plant injury rating (Morning-glory; 1 lb/A): 1 (no injury)
plant injury rating (Morning-glory; 2 lb/A): 2B
plant injury rating (Morning-glory; 4 lb/A): 4BS
plant injury rating (Morning-glory; 8 lb/A): 5N

O=[N+]([O-])c1cc(Cl)cc2c1NC(O)(C(F)F)N2 (stereo not drawn) [Example 5, 2-Hydroxy-2-(Difluoromethyl)-4-Nitro-6-Chlorobenzimidazoline, Calcium Salt]
plant injury rating (Velvetleaf; 1 lb/A): 3BS
plant injury rating (Velvetleaf; 2 lb/A): 3BS
plant injury rating (Velvetleaf; 4 lb/A): 4BS
plant injury rating (Velvetleaf; 8 lb/A): 5D
Mexican Bean Beetle Stom. (mortality rating) (Mexican bean beetle; 1000 ppm): 3 (100)
plant injury rating (Zinnia; 1 lb/A): 3BS
plant injury rating (Zinnia; 2 lb/A): 3BS
plant injury rating (Zinnia; 4 lb/A): 4BS
plant injury rating (Zinnia; 8 lb/A): 5D
plant injury rating (Large Crabgrass; 1 lb/A): 3BS
plant injury rating (Large Crabgrass; 2 lb/A): 3BS
plant injury rating (Large Crabgrass; 4 lb/A): 4BS
plant injury rating (Large Crabgrass; 8 lb/A): 4BS
plant injury rating (Morning-glory; 8 lb/A): 3RS

O=[N+]([O-])c1cc(C(F)(F)F)cc2c1NC(O)(C(F)(F)C(F)F)N2O (stereo not drawn) [Example 12, 1,2-Dihydroxy-2-(1,1,2,2-Tetrafluoroethyl)-4-Nitro-6-(Trifluoromethyl)Benzimidazoline]
plant injury rating (Velvetleaf; 1/4 lb/A): 2B
plant injury rating (Velvetleaf; 1/8 lb/A): 2SB
plant injury rating (Velvetleaf; 1 lb/A): 4BS
plant injury rating (Velvetleaf; 2 lb/A): 4BS
plant injury rating (Velvetleaf; 8 lb/A): 4BS
Mexican Bean Beetle Stom. (mortality rating) (Mexican bean beetle; 1000 ppm): 3 (100)
plant injury rating (Cucumber; 1/2 lb/A): 1 (no injury)
plant injury rating (Cucumber; 1 lb/A): 1 (no injury)
plant injury rating (Cucumber; 2 lb/A): 1 (no injury)
plant injury rating (Tomato; 1/2 lb/A): 1 (no injury)
plant injury rating (Tomato; 1 lb/A): 1 (no injury)
plant injury rating (Tomato; 2 lb/A): 1 (no injury)
plant injury rating (Sugar Beet; 1/2 lb/A): 1 (no injury)
plant injury rating (Sugar Beet; 1 lb/A): 1 (no injury)
plant injury rating (Sugar Beet; 2 lb/A): 3S
plant injury rating (Zinnia; 1/4 lb/A): 3B
plant injury rating (Zinnia; 1/8 lb/A): 2B
plant injury rating (Zinnia; 1 lb/A): 5D
plant injury rating (Zinnia; 2 lb/A): 5D
plant injury rating (Zinnia; 8 lb/A): 4BS
plant injury rating (Large Crabgrass; 1/4 lb/A): 3BS
plant injury rating (Large Crabgrass; 1/8 lb/A): 3BS
plant injury rating (Large Crabgrass; 1 lb/A): 5D
plant injury rating (Large Crabgrass; 2 lb/A): 5D
plant injury rating (Large Crabgrass; 8 lb/A): 3BS
plant injury rating (Mustard; 1/2 lb/A): 1 (no injury)
plant injury rating (Mustard; 1 lb/A): 1 (no injury)
plant injury rating (Mustard; 2 lb/A): 2S
plant injury rating (Morning-glory; 1/2 lb/A): 1 (no injury)
plant injury rating (Morning-glory; 1 lb/A): 1 (no injury)
plant injury rating (Morning-glory; 2 lb/A): 1 (no injury)
plant injury rating (Morning-glory; 8 lb/A): 3BS
